Assay results as given in PMC5519534, “AM-37 and ST-36 Are Small Molecule Bombesin Receptor Antagonists” (Frontiers in Endocrinology, 2017).
Marks after values point to notes of the source that are not given here. Where a SMILES comes first, the peptide text is derived from it. [ ]: non-standard residue; d: D form. Nle = CCCC[C@H](N)C(=O)O; βAla = NCCC(=O)O

How the values were obtained:
EGFR = EGFR tyrosine phosphorylation by western blot, NCI-H1299 cells transfected with BB2R; type: cell-based, human; settings: for Effect of pretreatment on BA1-induced EGFR tyrosine phosphorylation: 10 µM pretreatment, then 100 nM BA1
Method: (§1) The tyrosine phosphorylation of the EGFR and ERK was investigated by western blot. NSCLC cells transfected with BB1R, BB2R, and BRS-3 were placed in 10 cm dishes. When the cells were confluent, they were placed in SIT medium (RPMI-1640 containing 3 × 10^−8 M sodium selenite, 5 µg/ml bovine insulin, and 10 µg/ml apo-transferrin; Sigma-Aldrich, St. Louis, MO, USA) for 3 h. […] Cell extracts were made as described previously ([16]), and 600 µg of protein extract was immunoprecipitated with 4 µg anti-phosphotyrosine antibody (Becton Dickenson, USA). The immunoprecipitates were fractionated using a 4–20% polyacrylamide gel (Novex, San Diego, CA, USA). Proteins were transferred to a nitrocellulose membrane and incubated with 2 µg anti-EGFR or anti-ERK antibody (Cell Signaling Technologies, Danvers, MA, USA). After washing the blot, it was incubated with enhanced chemiluminescence detection reagent (Thermo Scientific) for 5 min and exposed to Biomax XAR film (Carestream, Rochester, NY, USA). The band intensity was determined using a Kodak image station 440 densitometer. Alternatively, 20 µg of protein extract was loaded onto polyacrylamide gels and after transfer to nitrocellulose, the blot was probed with anti-PY^1,068-EGFR, anti-EGFR, anti-PY^204ERK, or anti-ERK (Cell Signaling Technologies, Danvers, MA, USA).

BB1R [1] = target: T1, BB1R (Homo sapiens, UniProt P28336); experiment: Cytosolic Ca2+ (Fura-2AM) in NCI-H1299 cells transfected with BB1R; type: cell-based; settings: for Effect on the increase in cytosolic Ca2+ caused by BA1 / Effect on basal cytosolic Ca2+: 30 µM, BB1R-transfected cells
T1 construct: expressed in transfected cells; host or cells: NCI-H1299
T1 sequence (P28336 whole entry): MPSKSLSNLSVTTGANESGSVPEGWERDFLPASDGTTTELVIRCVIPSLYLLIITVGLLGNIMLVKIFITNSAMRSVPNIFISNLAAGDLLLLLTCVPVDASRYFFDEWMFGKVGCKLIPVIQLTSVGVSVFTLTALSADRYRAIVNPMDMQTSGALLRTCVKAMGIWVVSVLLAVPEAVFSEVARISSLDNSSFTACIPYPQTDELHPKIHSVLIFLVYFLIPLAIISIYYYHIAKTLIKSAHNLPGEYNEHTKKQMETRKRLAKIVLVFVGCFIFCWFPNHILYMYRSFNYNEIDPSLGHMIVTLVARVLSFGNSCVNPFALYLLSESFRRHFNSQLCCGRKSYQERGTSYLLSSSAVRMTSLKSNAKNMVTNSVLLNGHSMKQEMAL
Method: (§2) Non-small cell lung cancer cell line NCI-H1299 (ATCC, Manassas, VA, USA) was stably transfected with BB1R, BB2R, and BRS-3. The transfected cells were grown in RPMI-1640 containing 10% fetal bovine serum (FBS) with 0.3 mg/ml geneticin (Invitrogen, Grand Island, NY, USA). The transfected cells, which contained approximately 100,000 receptors/cell, were weekly split using trypsin/EDTA ([13]). In addition, lung cancer cell lines NCI-H727, H1299, and H1975 were purchased from ATCC and cultured in RPMI-1640, which contained 10% FBS. The cell types were derived from different human biopsy specimens. These studies were approved by the NIDDK biospecimens and biosafety committees.
(§3) The ability of AM-37, ST-36, AM-13, and AM-14 to function as BBR antagonists was investigated. NSCLC cells transfected with BB1R, BB2R, and BRS-3 were harvested and loaded with Fura-2AM (Calbiochem, La Jolla, CA, USA) as described previously ([16]). The excitation ratio was determined at 340 and 380 nm with an emission wavelength of 510 nm.

ERK = ERK tyrosine phosphorylation by western blot, NCI-H1299 cells transfected with BB2R; type: cell-based, human; settings: for Effect of pretreatment on BA1-induced ERK tyrosine phosphorylation: 10 µM pretreatment, then 100 nM BA1
Method: as §1

BB2R [2] = target: T2, BB2R (Homo sapiens, UniProt P30550); experiment: Inhibition of specific 125I-BA1 binding to BB2R-transfected NCI-H1299 cells; settings: for Ki: inhibition of specific 125I-BA1 binding, BB2R-transfected NCI-H1299 cells
T2 construct: expressed in transfected cells; host or cells: NCI-H1299
T2 sequence (P30550 whole entry): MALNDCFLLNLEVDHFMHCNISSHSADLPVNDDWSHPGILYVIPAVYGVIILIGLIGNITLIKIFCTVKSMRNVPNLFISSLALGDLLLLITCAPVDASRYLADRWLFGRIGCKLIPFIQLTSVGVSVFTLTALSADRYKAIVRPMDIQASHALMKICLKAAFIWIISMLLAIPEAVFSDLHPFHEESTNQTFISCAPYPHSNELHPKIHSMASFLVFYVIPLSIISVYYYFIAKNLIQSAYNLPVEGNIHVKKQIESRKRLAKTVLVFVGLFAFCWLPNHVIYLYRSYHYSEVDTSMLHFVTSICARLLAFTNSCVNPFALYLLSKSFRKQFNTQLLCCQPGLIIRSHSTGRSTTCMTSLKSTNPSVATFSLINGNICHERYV
Source text: Non-small cell lung cancer cell line NCI-H1299 (ATCC, Manassas, VA, USA) was stably transfected with BB1R, BB2R, and BRS-3. […] The transfected cells, which contained approximately 100,000 receptors/cell, were weekly split using trypsin/EDTA ([13]). […] The cell types were derived from different human biopsy specimens. These studies were approved by the NIDDK biospecimens and biosafety committees.
NSCLC cells were placed in 24 well plates. When confluent, the cells were washed three times with PBS. […] The cells were rinsed three times with binding buffer for 2 min at 4°C. […] The Ki was calculated as described ([15]).

BB2R [3] = target: T2, BB2R; experiment: Cytosolic Ca2+ (Fura-2AM) in NCI-H1299 cells transfected with BB2R; type: cell-based; settings: for Effect on the increase in cytosolic Ca2+ caused by BA1 / Effect on basal cytosolic Ca2+: 30 µM, BB2R-transfected cells
Method: as §2, §3

NSCLC cells = experiment: Ionomycin-induced cytosolic Ca2+ in NSCLC cells (specificity); type: cell-based, human; settings: for Effect on the ability of ION to increase Ca2+: 5 µg/ml ionomycin
Method: as §3

BB1R [4] = target: T1, BB1R; experiment: Inhibition of specific 125I-BA1 binding to BB1R-transfected NCI-H1299 cells
Method: as §2
(§4) The ability of AM-37, ST-36, AM-13, and AM-14 to inhibit specific ^125I-BA1 binding to NSCLC cells transfected stably with BB1R, BB2R, and BRS-3 was investigated. NSCLC cells were placed in 24 well plates. When confluent, the cells were washed three times with PBS. The cells were incubated with binding buffer (PBS containing 0.25% bovine serum albumin and 0.025% bacitracin, Sigma-Aldrich, St. Louis, MO, USA). Various concentrations of AM-37, ST-36, AM-13, or AM-14 were added to the cells for 10 min, followed by 100,000 cpm of ^125I-BA1 (0.16 nM) and incubated at 37°C for 30 min when equilibrium of binding was reached. The cells were rinsed three times with binding buffer for 2 min at 4°C. The cells that contained bound peptide dissolved in 0.2 N NaOH and counted in a Wallac 1470 γ-counter. The Ki was calculated as described ([15]).

BRS-3 [5] = target: T3, BRS-3 (Homo sapiens, UniProt P32247); experiment: Cytosolic Ca2+ (Fura-2AM) in NCI-H1299 cells transfected with BRS-3; type: cell-based; settings: for Effect on the increase in cytosolic Ca2+ caused by BA1 / Effect on basal cytosolic Ca2+: 30 µM, BRS-3-transfected cells
T3 construct: expressed in transfected cells; host or cells: NCI-H1299
T3 sequence (P32247 1-399): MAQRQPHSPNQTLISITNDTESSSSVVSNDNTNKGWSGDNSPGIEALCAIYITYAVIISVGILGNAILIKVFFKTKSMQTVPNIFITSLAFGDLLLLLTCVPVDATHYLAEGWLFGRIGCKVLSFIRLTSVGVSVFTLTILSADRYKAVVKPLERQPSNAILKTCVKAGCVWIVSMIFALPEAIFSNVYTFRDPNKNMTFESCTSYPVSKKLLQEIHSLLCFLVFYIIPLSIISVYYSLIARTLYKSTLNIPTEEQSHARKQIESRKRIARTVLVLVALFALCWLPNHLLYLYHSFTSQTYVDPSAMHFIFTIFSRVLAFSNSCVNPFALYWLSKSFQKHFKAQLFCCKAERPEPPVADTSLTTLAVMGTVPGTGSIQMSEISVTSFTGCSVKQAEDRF
Method: as §2, §3

BRS-3 [6] = target: T3, BRS-3; experiment: Inhibition of specific 125I-BA1 binding to BRS-3-transfected NCI-H1299 cells; settings: for Ki: inhibition of specific 125I-BA1 binding, BRS-3-transfected NCI-H1299 cells
Method: as §2, §4

NCI-H1299 cells = experiment: MTT proliferation assay, NCI-H1299; type: cell-based, human; settings: for IC50: Homo sapiens, NCI-H1299, 48 h, MTT, 2 days, SIT medium
Method: The proliferation of NSCLC cells was investigated using the 3-(4,5-demethylthiazol-2-yl)-[…]-2H-tetrazolium bromide (MTT) assay as described previously ([16]). NCI-H727, H1299, and H1975 cells were placed in SIT medium and varying concentration of AM-37, ST-36, AM-13, or AM-14 added. After 2 days, 0.1% MTT solution (15 µl) was added. After 4 h, DMSO (150 µl) was added and the absorbance at 570 nm was determined.

NTR = target: T4, NTR (Homo sapiens, UniProt P30989); experiment: Neurotensin-induced cytosolic Ca2+ in NSCLC cells (specificity); type: cell-based; settings: 10 nM neurotensin
T4 construct: endogenous in cells; host or cells: NCI-H1299 (transfected with bombesin receptors)
T4 sequence (P30989 whole entry): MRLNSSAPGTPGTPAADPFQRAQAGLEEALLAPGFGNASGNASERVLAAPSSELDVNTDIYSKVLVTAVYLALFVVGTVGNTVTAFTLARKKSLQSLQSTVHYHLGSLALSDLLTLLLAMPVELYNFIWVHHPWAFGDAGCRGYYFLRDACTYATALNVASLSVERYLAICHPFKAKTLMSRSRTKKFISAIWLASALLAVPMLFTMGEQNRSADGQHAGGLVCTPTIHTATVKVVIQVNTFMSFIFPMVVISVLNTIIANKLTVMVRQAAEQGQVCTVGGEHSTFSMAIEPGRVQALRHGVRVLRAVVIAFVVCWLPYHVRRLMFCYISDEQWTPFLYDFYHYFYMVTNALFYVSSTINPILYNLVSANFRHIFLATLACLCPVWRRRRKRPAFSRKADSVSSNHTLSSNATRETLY

[7] = 30 µM small molecule followed by 10 nM BA1
[8] = 100 nM BA1, relative to control

SMILES | Effect of pretreatment on BA1-induced EGFR tyrosine phosphorylation (EGFR) | Increase in cytosolic Ca2+, BB1R (BB1R [1]; [7]) | Effect of pretreatment on BA1-induced ERK tyrosine phosphorylation (ERK) | Ki (BB2R [2]) | Increase in cytosolic Ca2+, BB2R (BB2R [3]; [7]) | Effect on the ability of ION to increase Ca2+ (NSCLC cells) | Ki (BB1R [4]) | Increase in cytosolic Ca2+, BRS-3 (BRS-3 [5]; [7]) | Effect on the increase in cytosolic Ca2+ caused by BA1 (BRS-3 [5]; 10 nM BA1) | Effect on basal cytosolic Ca2+ (BRS-3 [5]) | Ki (BRS-3 [6]) | Effect on the increase in cytosolic Ca2+ caused by BA1 (BB1R [1]; 10 nM BA1) | Effect on basal cytosolic Ca2+ (BB1R [1]) | IC50 (NCI-H1299 cells) | Effect on the increase in cytosolic Ca2+ caused by BA1 (BB2R [3]; 10 nM BA1) | Effect on basal cytosolic Ca2+ (BB2R [3]) | Effect on the ability of NT to increase cytosolic Ca2+ (NTR) | also measured
COc1ccc(NC(=O)N[C@H](Cc2c[nH]c3ccccc23)C(=O)NCC2(c3ccc(F)cc3)CCCCC2)cc1 [AM-13, (R)-N-[[1-(4-fluorophenyl)cyclohexyl]methyl]-3-(1H-indol-3-yl)-2-[3-(4-methoxyphenyl)ureido]propanamide] | BA1 increased strongly EGFR tyrosine phosphorylation | 7 ± 0.8^a nM | not | 27 ± 4 µM | 5 ± 0.6^a nM | no effect | > 100 µM | 2 ± 0.3^a nM | partially blocked | no effect | > 100 µM | – | – | – | – | – | – | –
COc1ccc(NC(=O)N[C@@H](Cc2c[nH]c3ccccc23)C(=O)NCC2(c3ccc(F)cc3)CCCCC2)cc1 [AM-14] | little effect | – | little effect | 45 ± 8 µM | 6 + 0.5^a nM | no effect | > 100 µM | 3 + 0.4^a nM | – | – | > 100 µM | partially blocked | no effect | > 50 µM | partially blocked | no effect | – | –
COc1ccc(NC(=O)N[C@H](Cc2c[nH]c3ccccc23)C(=O)NCC2(c3cccnc3)CCCCC2)cc1 [AM-37, (R)-3-(1H-indol-3-yl)-2-[3-(4-methoxyphenyl)ureido]-N-[[1-(3-pyridinyl)cyclohexyl]methyl]propanamide] | addition of BA1 had little effect | 1 ± 0.6^a nM | decreased significantly | 1.4 ± 0.2 µM | 0^a nM | – | 3.6 ± 0.5 µM | 0^a nM | – | – | 5.5 ± 0.6 µM | blocked | no effect | 16 µM | – | – | no effect | Effect on NCI-H1299 proliferation (NCI-H1299 cells; 3 µM): little effect; Effect on NCI-H1299 proliferation (NCI-H1299 cells; 30 µM): strongly inhibited
CCCC[C@H](NC(=O)[C@H](Cc1ccccc1)NC(=O)[C@H](Cc1c[nH]cn1)NC(=O)CCNC(=O)[C@@H](NC(=O)[C@H](C)NC(=O)[C@H](Cc1c[nH]c2ccccc12)NC(=O)[C@H](CCC(N)=O)NC(=O)[C@H](N)Cc1ccc(O)cc1)C(C)C)C(N)=O [BA1, (D-Tyr^6, β-Ala^11, Phe^13, Nle^14)BB^6–14, reference compound] (H-[dY]QWAV[βAla]HF[Nle]-NH2; N-terminus and C-terminus assumed) | – | – | – | – | – | – | – | – | – | – | – | – | – | – | – | – | – | EGFR tyrosine phosphorylation (EGFR; [8]): 326%; Cytosolic Ca2+ reached after BA1 (BB1R [1]; 10 nM BA1, from 160 nM, within seconds, Figure 2A): 178 nM; Increase in cytosolic Ca2+, BB1R (BB1R [1]; BA1 10 nM alone): 18.5 ± 1.1 nM; ERK tyrosine phosphorylation (ERK; [8]): 277%; Cytosolic Ca2+ reached after BA1 (BB2R [3]; 10 nM BA1, from 160 nM, Figure 2D): 186 nM; Increase in cytosolic Ca2+, BB2R (BB2R [3]; BA1 10 nM alone): 26.3 ± 1.7 nM; Cytosolic Ca2+ reached after BA1 (BRS-3 [5]; 10 nM BA1, from 170 nM, Figure 2G): 194 nM; Increase in cytosolic Ca2+, BRS-3 (BRS-3 [5]; BA1 10 nM alone): 24.4 ± 2.3 nM
COc1ccc(NC(=O)N[C@@H](Cc2c[nH]c3ccccc23)C(=O)NCC2(c3cccnc3)CCCCC2)cc1 [ST-36] | addition of BA1 had little effect | 0^a nM | decreased significantly | 6.9 ± 0.3 µM | 0^a nM | – | 7.9 ± 0.9 µM | 0^a nM | blocked | no effect | 10.8 ± 0.9 µM | – | – | 22 µM | blocked | no effect | no effect | IC50 (BB2R [2]): 6.9 µM; IC50 (BRS-3 [6]): 10.8 µM
C[C@H](CCC(=O)O)C[C@H](C)C[C@H](C)C(=O)/C=C(\O)[C@H](C)C[C@H](C)C/C=C/[C@@H](C)[C@@H](O)[C@@H](C)[C@@H](O)C[C@@H]1CC[C@@](C)([C@H]2CC[C@@](C)([C@@H](C)O)O2)O1 [ionomycin, reference compound] | – | – | – | – | – | – | – | – | – | – | – | – | – | – | – | – | – | Effect on cytosolic Ca2+ (NSCLC cells; 5 µg/ml): strongly increased
